Measurements as given in patent US9586951B2 (FUJIFILM Corporation, priority 2013, dated 2017).

molecular target: T1, ATM (Homo sapiens, UniProt Q13315); experiment: ATM inhibition test (phosphorylation of Chk2 generated by ionizing radiation, AlphaScreen SureFire); type: cell-based; details: phosphorylated Chk2 in NCI-H460 cells, ionizing radiation 8Gy, 1 hour after test compound treatment; read-out: ATM inhibitory activity
T1 construct: detecting phosphorylation of Chk2 in a human non-small cell lung cancer cell line NCI-H460 (ATCC company); host or cells: NCI-H460 human non-small cell lung cancer cells
T1 sequence (Q13315 whole entry): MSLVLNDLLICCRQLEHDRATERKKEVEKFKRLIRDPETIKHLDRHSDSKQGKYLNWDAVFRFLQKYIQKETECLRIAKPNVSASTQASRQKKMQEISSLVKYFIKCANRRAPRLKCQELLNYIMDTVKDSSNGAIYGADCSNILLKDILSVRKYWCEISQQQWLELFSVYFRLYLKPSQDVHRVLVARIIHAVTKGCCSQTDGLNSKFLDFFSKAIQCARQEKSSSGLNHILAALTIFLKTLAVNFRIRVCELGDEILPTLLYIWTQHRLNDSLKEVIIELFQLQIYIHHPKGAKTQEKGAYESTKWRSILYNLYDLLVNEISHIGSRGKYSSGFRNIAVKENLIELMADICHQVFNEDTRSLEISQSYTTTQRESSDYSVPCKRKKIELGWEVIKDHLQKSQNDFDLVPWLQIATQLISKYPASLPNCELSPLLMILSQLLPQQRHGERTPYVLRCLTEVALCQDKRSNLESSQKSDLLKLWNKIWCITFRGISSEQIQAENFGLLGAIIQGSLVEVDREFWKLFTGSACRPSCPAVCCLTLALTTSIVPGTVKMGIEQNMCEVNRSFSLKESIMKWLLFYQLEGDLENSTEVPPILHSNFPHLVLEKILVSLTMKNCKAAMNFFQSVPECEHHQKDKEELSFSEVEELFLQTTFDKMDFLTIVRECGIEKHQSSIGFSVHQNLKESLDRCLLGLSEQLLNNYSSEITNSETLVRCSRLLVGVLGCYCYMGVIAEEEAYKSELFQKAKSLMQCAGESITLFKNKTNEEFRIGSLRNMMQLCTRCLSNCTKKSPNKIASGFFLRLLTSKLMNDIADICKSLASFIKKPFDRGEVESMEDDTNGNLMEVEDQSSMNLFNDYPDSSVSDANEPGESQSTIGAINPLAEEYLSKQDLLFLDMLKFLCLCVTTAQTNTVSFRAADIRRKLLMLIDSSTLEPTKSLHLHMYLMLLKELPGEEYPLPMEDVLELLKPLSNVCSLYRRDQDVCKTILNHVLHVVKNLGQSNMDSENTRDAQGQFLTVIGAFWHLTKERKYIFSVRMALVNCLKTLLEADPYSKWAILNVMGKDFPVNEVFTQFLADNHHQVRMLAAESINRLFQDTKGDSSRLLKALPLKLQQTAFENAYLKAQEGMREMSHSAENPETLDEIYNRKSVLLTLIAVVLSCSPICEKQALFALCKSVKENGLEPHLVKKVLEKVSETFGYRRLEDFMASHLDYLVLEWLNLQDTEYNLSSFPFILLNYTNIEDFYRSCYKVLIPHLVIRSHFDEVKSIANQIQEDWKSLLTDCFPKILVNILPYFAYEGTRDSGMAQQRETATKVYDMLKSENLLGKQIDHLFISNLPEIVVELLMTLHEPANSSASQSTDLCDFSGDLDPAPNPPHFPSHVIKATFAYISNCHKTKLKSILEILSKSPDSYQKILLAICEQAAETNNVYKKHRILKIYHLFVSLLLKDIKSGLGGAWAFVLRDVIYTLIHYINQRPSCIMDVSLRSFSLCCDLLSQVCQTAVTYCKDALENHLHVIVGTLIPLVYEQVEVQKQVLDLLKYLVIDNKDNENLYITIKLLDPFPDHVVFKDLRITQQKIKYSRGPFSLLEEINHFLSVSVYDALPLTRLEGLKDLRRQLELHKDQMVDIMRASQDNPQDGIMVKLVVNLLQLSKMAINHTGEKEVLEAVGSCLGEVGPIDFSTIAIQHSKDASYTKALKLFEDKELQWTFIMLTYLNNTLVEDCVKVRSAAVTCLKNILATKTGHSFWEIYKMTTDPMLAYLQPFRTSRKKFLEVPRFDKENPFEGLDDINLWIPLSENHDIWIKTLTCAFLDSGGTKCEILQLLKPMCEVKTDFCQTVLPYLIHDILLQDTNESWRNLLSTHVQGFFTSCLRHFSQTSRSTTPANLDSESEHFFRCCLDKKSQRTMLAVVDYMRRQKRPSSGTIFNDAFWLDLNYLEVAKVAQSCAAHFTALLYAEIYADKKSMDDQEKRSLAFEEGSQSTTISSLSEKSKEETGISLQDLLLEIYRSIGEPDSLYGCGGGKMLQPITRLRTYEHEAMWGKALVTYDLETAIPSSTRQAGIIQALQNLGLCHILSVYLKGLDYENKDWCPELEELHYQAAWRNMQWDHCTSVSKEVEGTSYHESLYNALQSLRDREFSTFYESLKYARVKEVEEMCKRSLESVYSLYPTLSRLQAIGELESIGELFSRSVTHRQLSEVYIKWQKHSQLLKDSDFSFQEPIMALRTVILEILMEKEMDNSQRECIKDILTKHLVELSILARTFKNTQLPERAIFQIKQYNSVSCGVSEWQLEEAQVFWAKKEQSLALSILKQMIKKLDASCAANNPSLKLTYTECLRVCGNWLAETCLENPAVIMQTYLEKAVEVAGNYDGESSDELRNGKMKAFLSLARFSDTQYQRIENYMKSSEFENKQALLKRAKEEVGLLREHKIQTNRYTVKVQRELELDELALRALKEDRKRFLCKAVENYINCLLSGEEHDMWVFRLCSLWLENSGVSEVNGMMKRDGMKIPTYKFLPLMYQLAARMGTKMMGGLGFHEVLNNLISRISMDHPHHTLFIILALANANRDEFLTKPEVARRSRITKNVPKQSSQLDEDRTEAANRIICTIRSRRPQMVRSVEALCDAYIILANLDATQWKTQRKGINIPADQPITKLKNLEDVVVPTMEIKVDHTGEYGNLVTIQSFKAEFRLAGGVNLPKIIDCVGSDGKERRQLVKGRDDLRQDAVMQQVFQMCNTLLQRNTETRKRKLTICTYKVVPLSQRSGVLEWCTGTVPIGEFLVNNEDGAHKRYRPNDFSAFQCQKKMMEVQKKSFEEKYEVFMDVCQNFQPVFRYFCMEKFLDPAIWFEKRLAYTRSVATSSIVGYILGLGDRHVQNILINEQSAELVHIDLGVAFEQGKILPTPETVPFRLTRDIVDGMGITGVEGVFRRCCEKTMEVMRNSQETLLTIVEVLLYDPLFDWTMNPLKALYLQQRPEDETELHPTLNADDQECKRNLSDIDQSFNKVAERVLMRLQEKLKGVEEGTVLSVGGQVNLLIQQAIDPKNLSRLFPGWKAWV
Procedure, shortened: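 NCI-H460 cells, compound 1 h pre-treatment, 8Gy IR, further 1 h at 37° C in 5% CO2. Read-out: phospho-Chk2 via AlphaScreen SureFire. % inhibition relative to IR-induced signal window (irradiated vs non-irradiated drug-free wells).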

SMILES	IC50 [nM]
O=c1cc(N2CCOCC2)cc(-c2cccc3c2Sc2ccc(NC4CCCN(C5COC5)C4)cc2S3)[nH]1 (stereo not shown) [Example 1-24-6, 4-Morpholino-6-(7-((1-(oxetan-3-yl)piperidin-3-yl)amino)thianthren-1-yl) pyridin-2(1H)-one]	100 to 500
O=c1cc(N2CCOCC2)cc(-c2cccc3c2Sc2ccc(NC4CCCN(C5CCOCC5)C4)cc2S3)[nH]1 (stereo not shown) [Example 1-24-7, 4-Morpholino-6-(7-((1-(tetrahydro-2H-pyran-4-yl)piperidin-3-yl)amino)thianthren-1-yl)pyridin-2 (1H)-one]	100 to 500
O=c1cc(N2CCOCC2)cc(-c2cccc3c2Sc2ccc(NC4CCN(C5CCCCC5)C4)cc2S3)[nH]1 (stereo not shown) [Example 1-24-9, 6-(7-((1-Cyclohexylpyrrolidin-3-yl)amino)thianthren-1-yl)-4-morpholinopyridin-2(1H)-one]	100 to 500
COc1ccncc1CN1CCC(Nc2ccc3c(c2)Sc2cccc(-c4cc(N5CCOCC5)cc(=O)[nH]4)c2S3)C1 (stereo not shown) [Example 1-24-10, 6-(7-((1-((4-Methoxypyridin-3-yl)methyl)pyrrolidin-3-yl)amino)thianthren-1-yl)-4-morpholino pyridin-2(1H)-one]	100 to 500
O=c1cc(N2CCOCC2)cc(-c2cccc3c2Sc2ccc(NC4CCN(Cc5cccnc5)C4)cc2S3)[nH]1 (stereo not shown) [Example 1-24-11, 4-Morpholino-6-(7-((1-(pyridin-3-ylmethyl)pyrrolidin-3-yl)amino)thianthren-1-yl)pyridin-2 (1H)-one]	< 100
O=c1cc(N2CCOCC2)cc(-c2cccc3c2Sc2ccc(NC4CCN(C5CCOC5)C4)cc2S3)[nH]1 (stereo not shown) [Example 1-24-14, 4-Morpholino-6-(7-((1-(tetrahydrofuran-3-yl)pyrrolidin-3-yl)amino)thianthren-1-yl)pyridin-2 (1H)-one]	100 to 500
O=c1cc(N2CCOCC2)cc(-c2cccc3c2Sc2ccc(NC4CCNCC4)cc2S3)[nH]1 [Example 1-24-15, 4-Morpholino-6-(7-(piperidin-4-ylamino)thianthren-1-yl)pyridin-2(1H)-one]	< 100
COc1cncc(CN2CCC(Nc3ccc4c(c3)Sc3cccc(-c5cc(N6CCOCC6)cc(=O)[nH]5)c3S4)CC2)c1 [Example 1-24-16, 6-(7-((1-((5-Methoxypyridin-3-yl)methyl)piperidin-4-yl)amino)thianthren-1-yl)-4-morpholinopyridin-2(1H)-one]	100 to 500
O=c1cc(N2CCOCC2)cc(-c2cccc3c2Sc2ccc(NC4CCN(Cc5ccccn5)CC4)cc2S3)[nH]1 [Example 1-24-19, 4-Morpholino-6-(7-((1-(pyridin-2-ylmethyl)piperidin-4-yl)amino)thianthren-1-yl)pyridin-2 (1H)-one]	100 to 500

Results, then the molecule that gave them:

IC50 [nM]	SMILES
100 to 500	O=c1cc(N2CCOCC2)cc(-c2cccc3c2Sc2ccc(NC4CCCN(C5CCCC5)C4)cc2S3)[nH]1 (stereo not shown) [Example 1-24-5, 6-(7-((1-Cyclopentylpiperidin-3-yl)amino)thianthren-1-yl)-4-morpholino pyridin-2(1H)-one]
100 to 500	O=c1cc(N2CCOCC2)cc(-c2cccc3c2Sc2ccc(NC4CCCN(C5CCOC5)C4)cc2S3)[nH]1 (stereo not shown) [Example 1-24-8, 4-Morpholino-6-(7-((1-(tetrahydrofuran-3-yl)piperidin-3-yl)amino)thianthren-1-yl)pyridin-2 (1H)-one]
100 to 500	O=c1cc(N2CCOCC2)cc(-c2cccc3c2Sc2ccc(NC4CCN(C5CCCC5)C4)cc2S3)[nH]1 (stereo not shown) [Example 1-24-12, 6-(7-((1-Cyclopentylpyrrolidin-3-yl)amino)thianthren-1-yl)-4-morpholino pyridin-2(1H)-one]
100 to 500	O=c1cc(N2CCOCC2)cc(-c2cccc3c2Sc2ccc(NC4CCN(C5CCOCC5)C4)cc2S3)[nH]1 (stereo not shown) [Example 1-24-13, 4-Morpholino-6-(7-((1-(tetrahydro-2H-pyran-4-yl)pyrrolidin-3-yl)amino)thianthren-1-yl)pyridin-2 (1H)-one]
